Data taken from patent publication US10376540B2, “Tungsten (VI) salts used to treat infertility, for stimulating fertility and normal reproduction in a non-diabetic female mammal, and for improving the effectiveness of assisted reproduction techniques” (OXOLIFE, S.L., priority 2014, dated 2019).
Values joined by “and” are separate entries in the source; they are usually repeats but may differ in a detail not shown here. Equal values may be shown once.

Assays:
[1] = tested on: HEC1-A endometrial cell line and JEG-3 trophectoderm cell line; assay: In vitro endometrial embryonic adhesion study (JEG-3 spheroids on HEC-1A monolayer); format: cell-based, human; details: for Absolute adhesion rate / Absolute adhesion rate, Mean: HEC-1A treated 24 hours (sodium tungstate 10 μM); for Absolute adhesion rate: adhesion after 60 minutes; for Embryonic adhesion versus untreated HEC-1A cells (in words): HEC-1A treated 24 hours; for Absolute adhesion rate, Mean: Mean of Exp 1-3, baseline 30%
From the text: An “in vitro” human-human embryonic adhesion model made up the HEC1-A endometrial cell line and the JEG-3 trophectoderm cell line was used to determine the effect of sodium tungstate on endometrial receptivity.
The use of in vitro models, and specifically the model based on the mentioned cell lines (HEC-1A and JEG-3), is considered a standard model for studying endometrial receptivity and particularly the adhesion the trophoblast to the endometrium (Fertility and Sterility 2011; 96, 522-529; Methods in Enzymology 2006; 420:3-18 or FASEB J. 201; 26:3715-3727).
The JEG-3 cell line which simulates the trophectoderm cells of a human embryo are cells that grow in monolayers in laboratory using low adherence plates and are capable of forming spheroids simulating the human embryo; this is one of the most widely used cell lines for conducting in vitro embryonic adhesion assay.
The cell lines were commercially purchased (American Type Culture Collection (ATCC); Rockville, Md., USA) for conducting the endometrial embryonic adhesion experiments. They were thawed and expanded in 4 passes for obtaining sufficient cells to perform all the assays.
The HEC1-A cells were plated in 24-well plates and cultured with McCoy 5A culture medium supplemented with 10% fetal bovine serum and 0.1% antibiotics (fungizone and penicillin), until reaching 90% confluence. After reaching the confluence, there was added to the culture medium sodium tungstate at a final concentration of 10 μM, as well as Withaferin A (as a control, a compound that prevents embryonic adhesion) or culture medium (baseline adhesion data), without any additional component, for 24 hours.
The JEG-3 cells were plated in low adherent plates with Eagle's minimal essential medium (EMEM) culture medium supplemented with 10% fetal bovine serum and 0.1% antibiotics (fungizone and penicillin). Twenty-four hours before the adhesion assay, the JEG-3 trophoblast spheroids were formed from this culture. To that end, JEG-3 cells in the medium described above were suspended in an Erlenmeyer flask under stirring at a concentration of 6×10^5 cells/6 ml. The resulting spheroids were collected for the adhesion assay.
For the adhesion assay, 24 hours after culturing the HEC-1A cells with culture medium adding sodium tungstate, Withaferin A or without adding any treatment, the culture medium was changed with fresh culture medium without treatments under study. The trophectoderm spheroids were added onto the monolayer of HEC-1A cells, placing 6 to 10 spheroids per well. The adhesion of the spheroids was measured after 60 minutes, counting spheroid that was floating in the culture medium as non-adhered spheroid and spheroid that was not floating as adhered spheroid. The examination was conducted with an inverted microscope (Nikon Diaphot 300; Nikon Corp., Tokyo, Japan). The assay was conducted in triplicate.

IRS2−/− female mice [2] = assay: Ovulation study: phase of the estrous cycle in vaginal smears (Papanicolau); format: in vivo; design: key to Phase of the estrous cycle in vaginal smear: A: Anestrus; D: Diestrus; P: Proestrus; E: Estrus; M: Metestrus; details: for Phase of the estrous cycle in vaginal smear: individual IRS2−/− female mice, dihydrate
From the text: The mouse model used for determining the activity of tungsten (VI) salts for favoring normal reproduction and fertility is an Irs2 gene knock-out mouse, IRS2^−/−[Burks et. al., “IRS-2 pathways integrate female reproduction and energy homeostasis”, Nature, 2000, vol. 407, pp. 377-382]. Irs2 gene deletion translates into a clear sexual dimorphism in relation to fertility and carbohydrate metabolism.
The male mice of this model have insulin resistance and severe hyperglycemia that started at an early age. In contrast, the female mice remain relatively euglycemic at an early age and develop slight insulin resistance which remains until a later age (4-5 months). IRS2^−/− female mice at an early age, about 10 weeks old, show a low follicular development and persistent anovulation, accompanied by the absence of estrous cycle in most mice. The pregnancy rate in IRS2^−/− female mice is 9% compared to the rate of 100% in IRS^wt (IRS-2^−/− wild type) female mice. Given that female mice at these ages remain euglycemic and that they only develop slight insulin resistance, the profound impairment in fertility is not a direct result of anomalies in glucose metabolism.
(§1) Ten IRS2^−/− female mice of ages comprised between 6 and 8 weeks. Six “wild-type” (IRS2^wt) male mice of ages comprised between 6 and 8 weeks. The female and male mice were housed separately in normal conditions, i.e., a 12 h light/darkness cycle and controlled temperature and humidity. The animals were fed at will (also referred to as ad libitum) with a standard feed diet.
(§2) After an acclimatization period, the IRS2^−/− female mice were housed in groups of 4-6 mice/cage. Tungstate salt-free drinking water was administered to the animals during the pre-treatment phase (2 weeks).
(§3) Sodium tungstate was administered in the drinking water (ad libitum) by means of a solution of 2 mg/ml of sodium tungstate dihydrate (marketed by Carlo Erba) in distilled water after the pre-treatment phase (day 0 of treatment) and up to 4 weeks before sacrificing the animals. The daily dose of sodium tungstate ingested by the mice was about 180 mg/kg of body weight.
During the pre-treatment period and during the first 3 weeks of treatment, vaginal smears were performed in 6 randomly chosen female mice on days −8; −5; −2; −1; 7; 8; 14; 15 and 22, to determine the phase of the estrous cycle they were in.
Between […] of saline solution was introduced into the vagina of the mice with a Pasteur pipette. Vaginal exudate was collected with the same pipette and spread on a slide. Once air-dried, it was fixed and stained with the Papanicolau technique.
The Papanicolau technique comprises staining the vaginal smears fixed on the slide in the following manner: • 10 immersions in 50% v/v alcohol; • Immersing in Harris hematoxylin solution for 3 minutes; • Rinsing with running water; • 10 immersions in acid alcohol (1% hydrochloric acid); • Rinsing with running water; • 10 immersions in 95% v/v alcohol; • Immersing in OG-6 solution for 30 seconds; • 10 immersions in 96% v/v alcohol; • Immersing in eosin solution for 1 minute; • 10 immersions in 96% v/v alcohol; • 10 immersions in 86% v/v alcohol; and • 10 immersions in xylol
The preparations were analyzed by trained staff using a coding in a single-blind manner for eliminating observer bias.
The samples were identified in the following phases: diestrus, proestrus, estrus, metestrus, anestrus or non-evaluable. The cyclical nature of the four phases in periods of 4 to 6 days are indicative of a normal estrous cycle, whereas the absence of this cyclical nature and the persistence in anestrus, diestrus or proestrus phases are indicative of the absence of estrous cycle.

IRS2−/− female mice [3] = assay: Implantation and pregnancy study after cross-breeding with IRS2wt male mice; format: in vivo
Experimental: as §1, §2, §3
After the first three weeks of treatment, the IRS2^−/− female mice were housed in cages in pairs together with a IRS2^wt male mouse continuously.
The mice were observed daily to look for signs of pregnancy or birth.
After 4 weeks, the male mice were exchanged between the cages and they were kept therein for another 4 weeks.
The administration of tungstate was maintained for 8 weeks in which male and female mice were housed together. After these 8 weeks, treatment was withdrawn and the male and female mice were housed together for 4 additional weeks.
After this period, the female mice were sacrificed and biopsy was carried out to look for indications of pregnancy.
After the cross-breeding period of the method of section B, the female mice were sacrificed and biopsies were carried out to look for indications of pregnancy.

[4] = tested on: rats with diabetes and insulinopenia induced by streptozotocin; details: streptozotocin-diabetic females after prolonged treatment (10 weeks), mated with healthy males; non-diabetic 100%; cited from earlier work
[5] = individual treated IRS2−/− female mice, dihydrate

| SMILES | Absolute adhesion rate ([1]; Exp 1, baseline 12%) [%] | Absolute adhesion rate ([1]; Exp 2, baseline 48%) [%] | Absolute adhesion rate ([1]; Exp 3, baseline 31%) [%] | Embryonic adhesion versus untreated HEC-1A cells (in words) [1] | Absolute adhesion rate, Mean [1] [%] | Phase of the estrous cycle in vaginal smear (IRS2−/− female mice [2]; day 7 of treatment, 2 mg/ml sodium tungstate dihydrate in drinking water (about 180 mg/kg/day)) | Phase of the estrous cycle in vaginal smear (IRS2−/− female mice [2]; day 8 of treatment, 2 mg/ml in drinking water) | Phase of the estrous cycle in vaginal smear (IRS2−/− female mice [2]; day 14 of treatment, 2 mg/ml in drinking water) | Phase of the estrous cycle in vaginal smear (IRS2−/− female mice [2]; day 15 of treatment, 2 mg/ml in drinking water) | Phase of the estrous cycle in vaginal smear (IRS2−/− female mice [2]; day 22 of treatment, 2 mg/ml in drinking water) | Analyzed mice with recovery of the estrous cycle (IRS2−/− female mice [2]; on the seventh day of treatment, infertile, non-diabetic IRS2−/− female mice) [%] | Pregnancy rate (IRS2−/− female mice [3]; IRS2−/− female mice treated with tungstate (untreated 9%)) [%] | Pregnancy (IRS2−/− female mice [3]; individual treated IRS2−/− female mice, 2 mg/ml in drinking water, cross-bred with IRS2wt males, dihydrate) | Number of embryos implanted or young born (embryos implanted) (IRS2−/− female mice [3]; [5]) | Number of embryos implanted or young born (young born) (IRS2−/− female mice [3]; [5]) | Mean of young/implanted embryos per pregnant female mouse (IRS2−/− female mice [3]; treated IRS2−/− female mice) | Percentage of births with respect to the number of positive curettages [4] [%] |
| --- | --- | --- | --- | --- | --- | --- | --- | --- | --- | --- | --- | --- | --- | --- | --- | --- | --- |
| CC1=C(CO)C(=O)O[C@@H]([C@@H](C)[C@H]2CC[C@H]3[C@@H]4C[C@H]5O[C@]56[C@@H](O)C=CC(=O)[C@]6(C)[C@H]4CC[C@]23C)C1 [Withaferin A, reference compound] | 0 | 0 | 0 | No adhesion whatsoever | 0 |  |  |  |  |  |  |  |  |  |  |  |  |
| O.O.[Na+].[Na+].[O]=[W](=[O])([O-])[O-] [sodium tungstate, sodium tungstate dihydrate] | 31 | 65 | 35 | higher percentage of embryonic adhesion | 44 | M and E (4×) and E-M | M and E-M (3×) and E (2×) | E and E-M (3×) and D | D and E (2×) and M (2×) and A | D (2×) and A (2×) and M and P | 100 | 80 | YES | 7 embryos (3×) and 6 embryos | 3 young and 8 young (2×) and 1 young | about 5 | 66 |
